Experimental data published in PMC11477209, “Toxicological Evaluation of Kaempferol and Linearolactone as Treatments for Amoebic Liver Abscess Development in Mesocricetus auratus” (International Journal of Molecular Sciences, 2024).
pIC50: −log10 of the molar value. Values after ≈ are worked out from the molar mass of the structure shown.

Key:
[1] = Paraclinical analysis (serum biochemistry, hematic biometry) in ALA hamsters; type: in vivo, Mesocricetus auratus
Method: Serum was obtained by centrifugation at 3500 rpm and frozen at −70 °C until analysis. Hematic biometry was performed in a hematology autoanalyzer system (BC-2300, Mindray; Shenzhen, China), and biochemical parameters were made on an automatic medical system (Prestige 24i, Tokyo Boeki; Kanagawa, Japan).

[2] = in vivo
Method: After blood samples were obtained, the hamsters were sacrificed with a lethal dose of sodium pentobarbital, followed by a cervical fracture. They were mounted on a dissecting board for the necropsy. A complete mid-laparotomy was performed to remove the lungs, spleen, heart, liver, and kidneys. An excisional biopsy was performed to recover the ALA lesions for morphometric analysis. The organs and ALA lesions were rinsed with 1× PBS, weighed, and adherent tissue was removed. […] Later, the inclusion protocol was performed to obtain histological sections (3 μm thick) with a rotatory microtome (RM2125-RTS, Leica; Wetzlar, Germany). Tissue slices were stained with hematoxylin-eosin (Merck; Rahway, NJ, USA), mounted on coverslips with Entellan^TM-New (Merck; Rahway, NJ, USA), and observed with optical microscopy (Eclipse 80i, Nikon; Tokio, Japan).

[3] = system: E. histolytica trophozoites (virulent HM-1 strain); settings: 48 h
CHO-K1 cells = test: MTT cytotoxicity assay; type: cell-based, Chinese hamster
[4] = system: E. histolytica trophozoites; test: Cell morphology by confocal microscopy (actin); type: cell-based, Entamoeba histolytica; settings: phalloidin-rhodamine, treatment with IC50
Method: Then, the culture medium was removed, and the adhered cells were fixed with 4% paraformaldehyde for 1 h at 37 °C. The samples were washed three times with 1× PBS and incubated with 1:50 phalloidin–rhodamine (R415, Invitrogen; Carlsbad, CA, USA) for 1 h at 37 °C. Finally, the cells were washed, mounted with VectaShield/DAPI medium (Vector Laboratories; Newark, CA, USA), and observed with a confocal microscope (LSM-700, Zeiss; Oberkochen, Germany).

[5] = system: E. histolytica trophozoites; settings: 48 h; ref [10]; read-out: IC50 E. histolytica trophozoites; cited from earlier work
BEAS-2B cells = test: MTT cytotoxicity assay; type: cell-based, human; settings: 24 h
[6] = system: E. histolytica trophozoites (amoebic liver abscess); test: Amoebic liver abscess (ALA) model, antiparasitic protocol; type: in vivo, Mesocricetus auratus
Text: M. auratus was used as an animal model because the hamster is naturally susceptible to infection by E. histolytica and can develop amoebic colitis or extraintestinal complications such as an ALA [71]. In this context, the hamster can be used to search for new alternative therapeutic agents against amoebiasis. The hamsters were acquired from Charles River Laboratories Inc. (Wilmington, MA, USA) in 2017 by Centro de Investigación y de Estudios Avanzados del Instituto Politécnico Nacional ([…]-IPN). […] Male hamsters (sexually mature and homozygous) weighing 95 ± 5 g and ≈10 weeks old were selected for the experiments. They were maintained in aseptic conditions at 25 ± 1 °C, 50 ± 3% humidity, a 12 h photoperiod, and ad libitum access to a standard diet (LabDiet; Richmond, IN, USA) and water (Figure 5A). The hamsters were housed in polycarbonate boxes (five per box), with an American Iron and Steel Institute (AISI) lid and wood shavings as bedding, in a controlled room of the Animal Production and Experimentation Unit (UPEAL) from […]-IPN (Figure 5A). Additionally, the health state of the hamsters and their adaptation to the new laboratory conditions were evaluated for 15 days to decrease their stress and anxiety levels. This study was carried out according to the Official Mexican Regulations (NOM-062-ZOO-1999) and NC3Rs ARRIVE [60, 72]. The protocol was approved by the Institutional Animal Care and Use Committee (Reg. No. 0183-16). Finally, the hamsters were not subjected to any previous experimental procedure or any additional treatment before beginning the experimental procedures (see File S1, NC3Rs ARRIVE Guidelines Checklist). Compounds that are prohibited and/or not recommended for use in animals by the American Veterinary Medical Association (Guidelines for the Euthanasia of Animals) were not used.
These experiments were performed with three independent biological replicates. For each replicate, twenty-five hamsters were randomly distributed (simple type) into five experimental groups (five animals per group). The sample size was determined based on the Organization for Economic Cooperation and Development (OECD) recommendations that establish the minimum number of individuals required for the tests so as not to sacrifice animals unnecessarily. Laparotomy was performed in aseptic conditions by using depilation, iodine solution, as well as sterile field cloths. Subsequently, an intra-hepatic puncture was made to deliver 1.5 × 10^6 virulent E. histolytica trophozoites in 100 μL of 1× PBS into the left hepatic lobe for ALA induction (Figure 5A-3). The injection site was immediately covered by applying a gel foam pad to maintain hemostasis. The abdominal layers were sutured discontinuously by single vertical stitches using Vicryl synthetic absorbable suture with a triangular pointed half circle needle. Irregular edges or folds in the surgical wound were eliminated to avoid tissue devitalization or possible infections. The development of a hepatic ALA was monitored for 4 days (Figure 5A-4).
(Figure 5B). The compounds were administered by the i.p. route because the peritoneal cavity presents rapid fluid absorption into the bloodstream, and initial biotransformation by the gastrointestinal tract is avoided. […] The hamsters were evaluated 24 h post-treatment to detect any signs of discomfort/pain or toxicity. The humane endpoint criteria used in this study were >20% body weight loss overnight, cachexia, recumbence, lethargy, respiratory distress, inability to reach food and water, lack of grooming, and ulceration around the surgical site, among others. Additionally, the weight of hamsters was determined at the beginning and end of the experiment with an electronic bascule (CS200, Ohaus; Parsippany, NJ, USA), and the ALA volume was calculated based on imaging (Figure 5B-1). […]

[7] = system: E. histolytica trophozoites (virulent HM-1 strain); test: microbe, parasite or virus in culture; settings: Entamoeba histolytica, 48 h, read-out: IC50 HM-1, 48 h, flow cytometry
[8] = MTZ 0.16, KP 31.6, LL 15.6 μg/mL

O=c1c(O)c(-c2ccc(O)cc2)oc2cc(O)cc(O)c12 [KP]
Erythrocytes ([1]; blood, ALA hamsters, i.p. 4 days): 6.8 ± 0.3 x10 6/mm3 | Band neutrophils ([1]; in vivo): 2 ± 1% | Basophils ([1]; in vivo): 0% | Eosinophils ([1]; in vivo): 0% | Immature forms ([1]; in vivo): 0% | Lymphocytes ([1]; in vivo): 39 ± 12% | Monocytes ([1]; in vivo): 0% | Segmented neutrophils ([1]; in vivo): 60 ± 11% | ALT (GPT) ([1]; in vivo, ip): 60 ± 10 U/L | Albumin ([1]; in vivo, ip): 1.7 ± 0.2 g/dL | Alkaline phosphatase ([1]; in vivo, ip): 349 ± 38 U/L | Cholesterol ([1]; in vivo, ip): 164 ± 43 mg/dL | Creatinine ([1]; in vivo, ip): 0.45 ± 0.1 mg/dL | Direct bilirubin ([1]; in vivo, ip): 0.37 ± 0.07 mg/dL | GGT ([1]; in vivo, ip): 9.3 ± 5.5 U/L | Glucose ([1]; in vivo, ip): 152 ± 11 mg/dL | Hematocrit ([1]; in vivo, ip): 48.8 ± 0.5% | Hemoglobin ([1]; in vivo, ip): 16.5 ± 0.2 g/dL | Indirect bilirubin ([1]; in vivo, ip): 0.01 ± 0.0 mg/dL | MCH ([1]; in vivo, ip): 24 ± 0.7 pg | MCHC ([1]; in vivo, ip): 33 ± 0.1 g/dL | MCV ([1]; in vivo, ip): 72 ± 2.3 fL | MPV ([1]; in vivo, ip): 7.25 ± 0.5 fL | PCT ([1]; in vivo, ip): 0.4 ± 0.2% | PDW ([1]; in vivo, ip): 9.15 ± 1.2 fL | Platelets ([1]; in vivo, ip): 537 ± 266 x106/μL | RDW-SD ([1]; in vivo, ip): 42.4 ± 0.3 fL | Total bilirubin ([1]; in vivo, ip): 0.38 ± 0.07 mg/dL | Total protein ([1]; in vivo, ip): 5.2 ± 0.2 g/dL | Triglycerides ([1]; in vivo, ip): 475 ± 28 mg/dL | Urea ([1]; in vivo, ip): 41.6 ± 4 mg/dL | leukocytes (mild leukocytosis) ([1]; in vivo, ip): 14,800 ± 700 /mm^3 | Heart largest diameter [2]: 1.06 ± 0.08 cm | Heart weight [2]: 0.38 ± 0.1 g | Kidneys largest diameter [2]: 1.2 ± 0.1 cm | Kidneys weight [2]: 0.49 ± 0.04 g | Liver largest diameter [2]: 3.88 ± 0.11 cm | Liver weight [2]: 5.9 ± 0.8 g | Lungs largest diameter [2]: 2.5 ± 0.05 cm | Lungs weight [2]: 0.74 ± 0.06 g | Spleen largest diameter [2]: 3.7 ± 0.1 cm | Spleen weight [2]: 0.36 ± 0.05 g | biological activity symbol on IC50 HM-1 [3]: + | apoptotic trophozoites [3, 8]: 8.2% | necrotic trophozoites [3, 8]: 45.2% | decrease of size and granularity of the cell population ([3]; MTZ 0.16, KP 31.6, LL 15.6 μg/mL, vs Vh): 55% | biological activity symbol on IC50 CHO-K1 (CHO-K1 cells; 24 h, MTT): +/- | IC50 (CHO-K1 cells; Cricetulus griseus, CHO-K1, 24 h, read-out: IC50 CHO-K1): 70 µg/mL (≈ 245 µM) | actin cytoskeleton alteration [4]: disorganized actin microfilaments | pIC50 [5]: 4.56 | biological activity symbol on IC50 BEAS-2B (BEAS-2B cells): +/- | IC50 (BEAS-2B cells; Homo sapiens, BEAS-2B): 100 µg/mL (≈ 349 µM) | Edges ([6]; ALA characteristics): Irregular and poorly defined | Leukocyte infiltrate ([6]; ALA characteristics): +/− | Liquid ([6]; ALA characteristics): +/− | Morphology ([6]; ALA characteristics): Ovoid | ALA Volume ([6]; MRI, i.p. 4 days): 738 ± 150 * mm^3 | MRI T1 signal of ALA ([6]; T1): Intermediate intensity | MRI T2 signal of ALA ([6]; T2): hypointense | ALA Weight ([6]; i.p. 4 days, KP 5, LL 10, MTZ 10 mg/kg/day): 0.86 ± 0.15 g | Survival rate (ALA hamsters, i.p. 4 days): 100% | Toxicity signs (in vivo, ip): None | IC50 [7]: 31.6 µg/mL (≈ 110 µM)
